Experimental data taken from ChEMBL document CHEMBL4118138, “Discovery of novel 2-[(4-hydroxy-6-oxo-2,3-dihydro-1H-pyridine-5-carbonyl)amino]acetic acid derivatives as HIF prolyl hydroxylase inhibitors for treatment of renal anemia” (Bioorg Med Chem Lett, 2018).
Activity calls are given as the source filed them. The calls are words filed in the database; no cut-off is given here.

Columns and labels:
[1] = Protein binding in Sprague-Dawley rat plasma at 0.3 ug/ml after 8 hrs by equilibrium dialysis method; type: ADME, cell-free; settings: read-out: PPB (converted)
[2] = Drug metabolism in Sprague-Dawley rat hepatocytes assessed as oxidative metabolism at 1 uM after 4 hrs by LC-MS/MS method; type: ADME, cell-based, Hepatocyte; settings: read-out: Drug metabolism
[3] = Drug metabolism in human hepatocytes assessed as oxidative metabolism at 1 uM after 4 hrs by LC-MS/MS method; type: ADME, cell-based, Hepatocyte; settings: read-out: Drug metabolism
[4] = Drug metabolism in beagle dog hepatocytes assessed as oxidative metabolism at 1 uM after 4 hrs by LC-MS/MS method; type: ADME, cell-based, Canis lupus familiaris, Hepatocyte; settings: read-out: Drug metabolism
[5] = Protein binding in beagle dog plasma at 0.3 ug/ml after 8 hrs by equilibrium dialysis method; type: ADME, cell-free, Canis lupus familiaris; settings: read-out: PPB (converted)
[6] = tested on: Mus musculus; assay: In vivo inhibition of PHD2 in Balb/c mouse assessed as EPO levels in serum at 40 mg/kg, po after 6 hrs by ELISA; type: functional
[7] = Protein binding in human plasma at 0.3 ug/ml after 8 hrs by equilibrium dialysis method; type: ADME, cell-free; settings: read-out: PPB (converted)
[8] = Effective half life in Sprague-Dawley rat at 1 mg/kg, iv; type: ADME, organism-based; settings: in vivo, read-out: t1/2eff (converted)
[9] = Tmax in beagle dog at 5 mg/kg, po by LC-MS/MS method; type: ADME, organism-based, Canis lupus familiaris; settings: in vivo
[10] = Tmax in Sprague-Dawley rat at 10 mg/kg, po by LC-MS/MS method; type: ADME, organism-based; settings: in vivo
[11] = Half life in Sprague-Dawley rat at 1 mg/kg, iv by LC-MS/MS method; type: ADME, organism-based; settings: in vivo
[12] = Oral bioavailability in beagle dog at 5 mg/kg by LC-MS/MS method; type: ADME, organism-based, Canis lupus familiaris; settings: in vivo
[13] = tested on: Rattus norvegicus; assay: In vivo inhibition of PHD2 in Sprague-Dawley rat assessed as EPO levels in serum at 40 mg/kg, po after 8 hrs by ELISA; type: functional
[14] = Half life in beagle dog at 5 mg/kg, po by LC-MS/MS method; type: ADME, organism-based, Canis lupus familiaris; settings: in vivo
[15] = Volume of distribution at steady state in beagle dog at 1 mg/kg, iv by LC-MS/MS method; type: ADME, organism-based, Canis lupus familiaris; settings: in vivo, read-out: Vdss
[16] = Total clearance in Sprague-Dawley rat at 1 mg/kg, iv by LC-MS/MS method; type: ADME, organism-based; settings: in vivo
[17] = Cmax in Sprague-Dawley rat at 10 mg/kg, po by LC-MS/MS method; type: ADME, organism-based; parameters: dose 10 mg/kg, route oral; settings: in vivo
[18] = Half life in beagle dog at 1 mg/kg, iv by LC-MS/MS method; type: ADME, organism-based, Canis lupus familiaris; settings: in vivo
[19] = Cmax in beagle dog at 5 mg/kg, po by LC-MS/MS method; type: ADME, organism-based, Canis lupus familiaris; parameters: dose 5 mg/kg, route oral; settings: in vivo
[20] = Volume of distribution at steady state in Sprague-Dawley rat at 1 mg/kg, iv by LC-MS/MS method; type: ADME, organism-based; settings: in vivo, read-out: Vdss
[21] = target: Egl nine homolog 1 (Rattus norvegicus, UniProt P59722); assay: Inhibition of rat PHD2 using FITC-HIF1-alpha as substrate after 10 mins in presence of 2-oxoglutarate by fluorescence polarization assay
Sequence of Egl nine homolog 1 (P59722 whole entry): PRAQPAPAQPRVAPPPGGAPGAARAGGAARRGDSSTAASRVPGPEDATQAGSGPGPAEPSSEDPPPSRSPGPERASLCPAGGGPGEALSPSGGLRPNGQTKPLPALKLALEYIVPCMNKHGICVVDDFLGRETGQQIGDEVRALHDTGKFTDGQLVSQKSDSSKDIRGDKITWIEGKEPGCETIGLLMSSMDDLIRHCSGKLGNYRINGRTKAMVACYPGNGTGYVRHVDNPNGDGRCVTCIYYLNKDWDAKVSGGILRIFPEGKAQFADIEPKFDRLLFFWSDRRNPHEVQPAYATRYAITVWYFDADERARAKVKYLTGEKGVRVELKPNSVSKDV

[22] = Half life in Sprague-Dawley rat at 10 mg/kg, po by LC-MS/MS method; type: ADME, organism-based; settings: in vivo
[23] = Oral bioavailability in Sprague-Dawley rat at 10 mg/kg by LC-MS/MS method; type: ADME, organism-based; settings: in vivo
[24] = Total clearance in beagle dog at 1 mg/kg, iv by LC-MS/MS method; type: ADME, organism-based, Canis lupus familiaris; settings: in vivo
[25] = Half life in patient administered as qd; type: ADME, organism-based; settings: human, in vivo
[26] = Protein binding in human serum at 1 ug/ml after 4 hrs by equilibrium dialysis method; type: ADME, cell-free; settings: read-out: PB (converted)
[27] = tested on: Mus musculus; assay: In vivo inhibition of PHD2 in Balb/c mouse assessed as EPO levels in serum at 100 mg/kg, po after 6 hrs by ELISA; type: functional
[28] = tested on: Rattus norvegicus; assay: In vivo inhibition of PHD2 in Sprague-Dawley rat assessed as increase in EPO levels in serum at 100 mg/kg, po after 6 hrs by ELISA; type: functional, organism-based
[29] = Protein binding in Sprague-Dawley rat serum at 1 ug/ml after 4 hrs by equilibrium dialysis method; type: ADME, cell-free; settings: read-out: PB (converted)
[30] = Drug metabolism in Sprague-Dawley rat hepatocytes assessed as oxidative metabolism at 1 uM after 1 hr by LC-MS/MS method; type: ADME, cell-based, Hepatocyte; settings: read-out: Drug metabolism
[31] = tested on: Homo sapiens; assay: Terminal half life in patient with hepatic impairment at 100 mg, po; type: ADME, organism-based; settings: in vivo

In the case of `O=C([O-])CNC(=O)C1=C(O)CCN(Cc2ccc(Oc3ccc(Cl)cc3)nc2)C1=O.[Na+]`, the fraction unbound at 8 h, 0.3 ug/ml [1] is reported as 0.011, the metabolised at 4 h, 1 µM [2] is reported as 0.9% and the metabolised at 4 h, 1 µM [3] is reported as 5.7%. For the same compound, the metabolised at 4 h, 1 µM [4] was -0.3%, the fraction unbound at 8 h, 0.3 ug/ml [5] was 0.011 and the “serum EPO level” value [6] was 8371 pg/mL. For the same compound, the fraction unbound at 8 h, 0.3 ug/ml [7] was 0.009.

In the case of `O=C([O-])CNC(=O)C1=C(O)CCN(Cc2ccc(OCCC3CC3)cc2)C1=O.[Na+]`, the half-life [8] is reported as 0.46 h and the “serum EPO level” value [6] is reported as 8163 pg/mL.

With `O=C(O)CNC(=O)C1=C(O)CCN(Cc2ccc(Oc3ccc(Cl)cc3)nc2)C1=O` the Tmax [9] was 0.75 h, the Tmax [10] was 0.25 h and the half-life [11] was 3.1 h. It also gave a half-life [8] of 1.5 h, a bioavailability [12] of 52.8% and an Activity [13] of 3003 pg/mL. It also gave a half-life [14] of 3.5 h, a Vd [15] of 0.231 L/kg and a clearance [16] of 7.28 mL/min/kg. It also gave a Cmax [17] of 10700 ng/mL, a half-life [18] of 4.7 h and a Cmax [19] of 6980 ng/mL. The Vd [20] was 0.904 L/kg, the IC50 [21] was 18 nM and the half-life [22] was 2.3 h. For the same compound, the bioavailability [23] was 82.8% and the clearance [24] was 3.28 mL/min/kg.

`O=C(O)CNC(=O)c1ncc(-c2cccc(Cl)c2)cc1O` [VADADUSTAT] gave a half-life [25] of 4.5 h.

With `O=C(O)CNC(=O)C1=C(O)CC2(CCCCC2)N(Cc2ccc(-c3ccccc3)cc2)C1=O` the fraction unbound at 4 h, 1 ug/ml [26] was less than 0.006, the Activity [27] was 2323 pg/mL and the Activity [28] was “inactive”. The fraction unbound at 4 h, 1 ug/ml [29] was less than 0.006 and the metabolised at 1 h, 1 µM [30] was 31.3%.

With `O=C(O)CNC(=O)C1=C(O)CCN(Cc2ccc(OCC3CC3)cc2)C1=O` the half-life [8] was 1.4 h and the “serum EPO level” value [6] was 6258 pg/mL.

For `Cc1ccc(Oc2ccc(CN3CCC(O)=C(C(=O)NCC(=O)[O-])C3=O)nc2)cc1.[Na+]`, the “serum EPO level” value [6] was 1488 pg/mL.

For `O=C([O-])CNC(=O)C1=C(O)CCN(Cc2ccc(OCCC3CC3)nc2)C1=O.[Na+]`, the half-life [8] was 0.42 h and the “serum EPO level” value [6] was 7530 pg/mL.

In the case of `Cc1ccc(Oc2ccc(CN3CCC(O)=C(C(=O)NCC(=O)O)C3=O)cc2)cc1`, the half-life [8] is reported as 0.52 h and the “serum EPO level” value [6] is reported as 4441 pg/mL.

`CC1CC(O)=C(C(=O)NCC(=O)O)C(=O)N1Cc1ccc(-c2ccccc2)cc1` (centres undefined) showed a fraction unbound at 4 h, 1 ug/ml [26] of less than 0.006, a fraction unbound at 4 h, 1 ug/ml [29] of less than 0.006 and a metabolised at 1 h, 1 µM [30] of 3.8%.

With `Cc1ccc(Oc2ccc(CN3CCC(O)=C(C(=O)NCC(=O)O)C3=O)cn2)cc1` the half-life [8] was 0.72 h and the “serum EPO level” value [6] was 3497 pg/mL.

Work on `O=C(O)CNC(=O)C1=C(O)CCN(Cc2ccc(OC(F)(F)F)cc2)C1=O` yielded a half-life [8] of 2.8 h.

`O=C(O)CNC(=O)C1=C(O)CC2(CCC2)N(Cc2ccc(-c3ccccc3)cc2)C1=O` showed a fraction unbound at 4 h, 1 ug/ml [26] of 0.005, a fraction unbound at 4 h, 1 ug/ml [29] of less than 0.006 and a metabolised at 1 h, 1 µM [30] of 13%.

For `O=C([O-])CNC(=O)C1=C(O)CCN(Cc2ccc(OC3CC3)cc2)C1=O.[Na+]`, the half-life [8] was 0.55 h.

Compound `O=C(O)CNC(=O)C1C(=O)N(C2CCCCC2)C(=O)N(C2CCCCC2)C1=O` [DAPRODUSTAT] has a half-life [25] of 2.7 h.

With `O=C(O)CNC(=O)C1=C(O)CCN(Cc2ccc(-c3ccccc3)cc2)C1=O` the fraction unbound at 4 h, 1 ug/ml [26] was 0.011, the fraction unbound at 4 h, 1 ug/ml [29] was 0.007 and the metabolised at 1 h, 1 µM [30] was 34.4%.

For `Cc1nc(C(=O)NCC(=O)O)c(O)c2ccc(Oc3ccccc3)cc12` [ROXADUSTAT], the “beta t1/2” value [31] was 13 h.

Work on `O=C(O)CNC(=O)C1=C(O)CCN(Cc2ccc(C(F)(F)F)cc2)C1=O` yielded a half-life [8] of 4.9 h.

In the case of `O=C([O-])CNC(=O)C1=C(O)CCN(Cc2ccc(OCCC3CC3)cn2)C1=O.[Na+]`, the “serum EPO level” value [6] is reported as 471 pg/mL.

With `CC1CN(Cc2ccc(-c3ccccc3)cc2)C(=O)C(C(=O)NCC(=O)O)=C1O` (centres undefined) the fraction unbound at 4 h, 1 ug/ml [26] was less than 0.005, the fraction unbound at 4 h, 1 ug/ml [29] was less than 0.005 and the metabolised at 1 h, 1 µM [30] was 6%.
